Assay results as given in US12077503B2, “Substituted cyclic amides and their use as herbicides” (FMC CORPORATION, priority 2015, dated 2024).

Tests used:
Format in all cases: in vivo
[1] = test system: barnyardgrass (Echinochloa crus-galli); assay: Test G Pre-Emergence Protocol; conditions: Echinochloa crus-galli, pre-emergence, 312 h, evaluated after 13 days
How it was run: (§1)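 Glasshouse pre-emergence test: soil-sown seeds, sprayed after 1 d at 15.625, 62.5 or 250 g/ha. Conditions 24/16° C day/night, 14 h light, 65% humidity, watering twice daily. Rating 13 d post-spray (100 = total damage).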

corn (Zea mays) [2] = assay: Test G Pre-Emergence Protocol; conditions: Zea mays, pre-emergence, 312 h, evaluated after 13 days
How it was run: as §1

[3] = test system: giant foxtail (Setaria faberi); assay: Test G Pre-Emergence Protocol; conditions: Setaria faberi, pre-emergence, 312 h, evaluated after 13 days
How it was run: as §1

[4] = test system: ivy-leaved morning glory (Ipomoea hederacea); assay: Test G Pre-Emergence Protocol; conditions: Ipomoea, pre-emergence, 312 h, evaluated after 13 days
How it was run: as §1

[5] = test system: redroot pigweed (Amaranthus retroflexus); assay: Test G Pre-Emergence Protocol; conditions: Amaranthus retroflexus, pre-emergence, 312 h, evaluated after 13 days
How it was run: as §1

[6] = test system: velvetleaf (Abutilon theophrasti); assay: Test G Pre-Emergence Protocol; conditions: Abutilon theophrasti, pre-emergence, 312 h, evaluated after 13 days
How it was run: as §1

[7] = test system: barnyardgrass (Echinochloa crus-galli); assay: Test G Post-Emergence Protocol; conditions: Echinochloa crus-galli, post-emergence, 312 h
How it was run: (§2)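 Sow in soil; grow 8 d (24/16 °C, 14 h light, 65% humidity); spray 15.625/62.5/250 g/ha in acetone:water 50:50 + 0.5% Tween 20; grow on, water twice daily; score damage 0–100 at 13 d.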

corn (Zea mays) [8] = assay: Test G Post-Emergence Protocol; conditions: Zea mays, post-emergence, 312 h
How it was run: as §2

[9] = test system: giant foxtail (Setaria faberi); assay: Test G Post-Emergence Protocol; conditions: Setaria faberi, post-emergence, 312 h
How it was run: as §2

[10] = test system: ivy-leaved morning glory (Ipomoea hederacea); assay: Test G Post-Emergence Protocol; conditions: Ipomoea, post-emergence, 312 h
How it was run: as §2

[11] = test system: redroot pigweed (Amaranthus retroflexus); assay: Test G Post-Emergence Protocol; conditions: Amaranthus retroflexus, post-emergence, 312 h
How it was run: as §2

[12] = test system: velvetleaf (Abutilon theophrasti); assay: Test G Post-Emergence Protocol; conditions: Abutilon theophrasti, post-emergence, 312 h
How it was run: as §2

COc1cc([C@@H]2CN(C)C(=O)[C@H]2C(=O)Nc2cccc(F)c2F)ccc1Cl (racemic) [Compound 1474]
pest or weed control at 15.625 g/ha ([1]; 15.625 g ai/ha, read-out: Barnyard grass damage rating (100=total damage to plant; 0=no damage to plant)): 10% | pest or weed control at 62.5 g/ha ([1]; 62.5 g ai/ha, 100=total damage to plant, 0=no damage to plant, read-out: plant damage rating, Barnyardgrass): 70% | pest or weed control at 250 g/ha ([1]; 250 g ai/ha, read-out: Barnyardgrass damage rating (100=total damage to plant; 0=no damage to plant)): 80% | plant injury at 15.625 g/ha (corn (Zea mays) [2]; 15.625 g ai/ha, read-out: Corn damage rating (100=total damage to plant; 0=no damage to plant)): 0% | plant injury at 62.5 g/ha (corn (Zea mays) [2]; 62.5 g ai/ha, 100=total damage to plant, 0=no damage to plant, read-out: plant damage rating, Corn): 0% | plant injury at 250 g/ha (corn (Zea mays) [2]; 250 g ai/ha, read-out: Corn damage rating (100=total damage to plant; 0=no damage to plant)): 40% | pest or weed control at 15.625 g/ha ([3]; 15.625 g ai/ha, read-out: Foxtail, Giant damage rating (100=total damage to plant; 0=no damage to plant)): 50% | pest or weed control at 62.5 g/ha ([3]; 62.5 g ai/ha, 100=total damage to plant, 0=no damage to plant, read-out: plant damage rating, Foxtail, Giant): 80% | pest or weed control at 250 g/ha ([3]; 250 g ai/ha, read-out: Foxtail, Giant damage rating (100=total damage to plant; 0=no damage to plant)): 90% | pest or weed control at 15.625 g/ha ([4]; 15.625 g ai/ha, read-out: Morning-glory, Ivy-leaved damage rating (100=total damage to plant; 0=no damage to plant)): 10% | pest or weed control at 62.5 g/ha ([4]; 62.5 g ai/ha, 100=total damage to plant, 0=no damage to plant, read-out: plant damage rating, Morningglory, Ivy-leaved): 0% | pest or weed control at 250 g/ha ([4]; 250 g ai/ha, read-out: Morningglory, Ivy-leaved damage rating (100=total damage to plant; 0=no damage to plant)): 10% | pest or weed control at 15.625 g/ha ([5]; 15.625 g ai/ha, read-out: Pigweed, Redroot damage rating (100=total damage to plant; 0=no damage to plant)): 0% | pest or weed control at 62.5 g/ha ([5]; 62.5 g ai/ha, 100=total damage to plant, 0=no damage to plant, read-out: plant damage rating, Pigweed, Redroot): 0% | pest or weed control at 250 g/ha ([5]; 250 g ai/ha, read-out: Pigweed, Redroot damage rating (100=total damage to plant; 0=no damage to plant)): 20% | pest or weed control at 15.625 g/ha ([6]; 15.625 g ai/ha, read-out: Velvetleaf damage rating (100=total damage to plant; 0=no damage to plant)): 0% | pest or weed control at 62.5 g/ha ([6]; 62.5 g ai/ha, 100=total damage to plant, 0=no damage to plant, read-out: plant damage rating, Velvetleaf): 0% | pest or weed control at 250 g/ha ([6]; 250 g ai/ha, read-out: Velvetleaf damage rating (100=total damage to plant; 0=no damage to plant)): 0% | pest or weed control at 15.625 g/ha ([7]; 15.625 g ai/ha, evaluated after 13 days (100=total damage to plant; 0=no damage to plant), read-out: Barnyardgrass damage rating): 20% | pest or weed control at 62.5 g/ha ([7]; 62.5 g ai/ha, evaluated after 13 days, read-out: Barnyardgrass damage rating (100=total damage to plant; 0=no damage to plant)): 50% | pest or weed control at 250 g/ha ([7]; 250 g ai/ha, evaluated after 13 days, read-out: damage to plant, Barnyardgrass (100=total damage to plant; 0=no damage to plant)): 60% | plant injury at 15.625 g/ha (corn (Zea mays) [8]; 15.625 g ai/ha, evaluated after 13 days (100=total damage to plant; 0=no damage to plant), read-out: Corn damage rating): 10% | plant injury at 62.5 g/ha (corn (Zea mays) [8]; 62.5 g ai/ha, evaluated after 13 days, read-out: Corn damage rating (100=total damage to plant; 0=no damage to plant)): 30% | plant injury at 250 g/ha (corn (Zea mays) [8]; 250 g ai/ha, evaluated after 13 days, read-out: damage to plant, Corn (100=total damage to plant; 0=no damage to plant)): 40% | pest or weed control at 15.625 g/ha ([9]; 15.625 g ai/ha, evaluated after 13 days (100=total damage to plant; 0=no damage to plant), read-out: Foxtail, Giant damage rating): 60% | pest or weed control at 62.5 g/ha ([9]; 62.5 g ai/ha, evaluated after 13 days, read-out: Foxtail, Giant damage rating (100=total damage to plant; 0=no damage to plant)): 70% | pest or weed control at 250 g/ha ([9]; 250 g ai/ha, evaluated after 13 days, read-out: damage to plant, Foxtail, Giant (100=total damage to plant; 0=no damage to plant)): 70% | pest or weed control at 15.625 g/ha ([10]; 15.625 g ai/ha, evaluated after 13 days (100=total damage to plant; 0=no damage to plant), read-out: Morningglory, Ivy-leaved damage rating): 40% | pest or weed control at 62.5 g/ha ([10]; 62.5 g ai/ha, evaluated after 13 days, read-out: Morningglory, Ivy-leaved damage rating (100=total damage to plant; 0=no damage to plant)): 50% | pest or weed control at 250 g/ha ([10]; 250 g ai/ha, evaluated after 13 days, read-out: damage to plant, Morningglory, Ivy-leaved (100=total damage to plant; 0=no damage to plant)): 50% | pest or weed control at 15.625 g/ha ([11]; 15.625 g ai/ha, evaluated after 13 days (100=total damage to plant; 0=no damage to plant), read-out: Pigweed, Redroot damage rating): 30% | pest or weed control at 62.5 g/ha ([11]; 62.5 g ai/ha, evaluated after 13 days, read-out: Pigweed, Redroot damage rating (100=total damage to plant; 0=no damage to plant)): 0% | pest or weed control at 250 g/ha ([11]; 250 g ai/ha, evaluated after 13 days, read-out: damage to plant, Pigweed, Redroot (100=total damage to plant; 0=no damage to plant)): 30% | pest or weed control at 15.625 g/ha ([12]; 15.625 g ai/ha, evaluated after 13 days (100=total damage to plant; 0=no damage to plant), read-out: Velvetleaf damage rating): 10% | pest or weed control at 62.5 g/ha ([12]; 62.5 g ai/ha, evaluated after 13 days, read-out: Velvetleaf damage rating (100=total damage to plant; 0=no damage to plant)): 0% | pest or weed control at 250 g/ha ([12]; 250 g ai/ha, evaluated after 13 days, read-out: damage to plant, Velvetleaf (100=total damage to plant; 0=no damage to plant)): 20%
